Source: patent publication US5968910A, “Compositions containing two or three inhibitors of different HIV reverse transcriptases” (priority 1994, dated 1999)
Converted amounts (≈) assume the structure as drawn. Where two headings read alike, the source gives them in different places.

Key:
HIV-1(IIIB) (WT) = test: microbe, parasite or virus in culture; type: cell-based; conditions: Human immunodeficiency virus 1, IIIB, CCRF-CEM
In short: (§1)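 CEM cells at 250,000 cells/ml were infected with HIV-1 at 100 CCID50 per ml, then mixed with serial dilutions of test compound. After 4 days at 37° C., cultures were scored for syncytium formation.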

[1] = tested on: HIV-1/V(0.1) 101-Ile + 141-Glu; test: Sensitivity of mutant HIV-1 strain in CEM cell cultures; type: cell-based; conditions: Human immunodeficiency virus 1, CCRF-CEM; Table 5; read-out: EC50
In short: as §1

HIV-1/IV(0.1) 103-Thr = test: as above; type: cell-based; conditions: Human immunodeficiency virus 1, CCRF-CEM; Table 5; read-out: EC50
In short: as §1

HIV-1/Nev (106-Ala) = test: as above; type: cell-based; conditions: Human immunodeficiency virus 1, CCRF-CEM; CEM cells, Table 1; read-out: 50% Effective Concentration
In short: as §1

HIV-1/B 101Glu = test: as above; type: cell-based; conditions: Human immunodeficiency virus 1, CCRF-CEM; Table 5; read-out: EC50
In short: as §1

HIV-1/I(0.1) 103-Asn = test: as above; type: cell-based; conditions: Human immunodeficiency virus 1, CCRF-CEM; Table 5; read-out: EC50
In short: as §1

[2] = tested on: HIV-1/TIBO R82913 (103-Asn); test: as above; type: cell-based; conditions: Human immunodeficiency virus 1, CCRF-CEM; CEM cells, Table 1; read-out: 50% Effective Concentration
In short: as §1

HIV-1/Pyr (181-Cys) = test: as above; type: cell-based; conditions: Human immunodeficiency virus 1, CCRF-CEM; CEM cells, Table 1; read-out: 50% Effective Concentration
In short: as §1

[3] = tested on: HIV-1/TIBO R82150 (100-Ile); test: as above; type: cell-based; conditions: Human immunodeficiency virus 1, CCRF-CEM; CEM cells, Table 1; read-out: 50% Effective Concentration
In short: as §1

HIV-1/II(0.1) 100-Ile = test: as above; type: cell-based; conditions: Human immunodeficiency virus 1, CCRF-CEM; Table 5; read-out: EC50
In short: as §1

[4] = tested on: HIV-1/TSAO-m^3 T (138-Lys); test: as above; type: cell-based; conditions: Human immunodeficiency virus 1, CCRF-CEM; CEM cells, Table 1; read-out: 50% Effective Concentration
In short: as §1

HIV-1/III(0.1) 103-Asn = test: as above; type: cell-based; conditions: Human immunodeficiency virus 1, CCRF-CEM; Table 5; read-out: EC50
In short: as §1

HIV-1/V(0.5) 103-Asn = test: as above; type: cell-based; conditions: Human immunodeficiency virus 1, CCRF-CEM; Table 5; read-out: EC50
In short: as §1

HIV-1(IIIB) = test: Knock-out concentrations: breakthrough of HIV-1(IIIB)-induced cytopathicity in CEM cell cultures; type: cell-based; conditions: for activity at 0.1 µg/mL / activity at 0.5 µg/mL / activity at 2.5 µg/mL: Human immunodeficiency virus 1, IIIB, CCRF-CEM, read-out: HIV-1-induced cytopathicity in cell culture; for activity at 0.1 µg/mL: 0.1 μg/ml; for activity at 0.5 µg/mL: 0.5 μg/ml; for activity at 2.5 µg/mL: 2.5 μg/ml
In short: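 CEM cells in RPMI 1640 with 10% FBS infected with HIV-1(IIIB) at ~1000× CCID50, subcultured every 3–4 days into fresh uninfected cells with drug held constant for 10 subcultivations (35 days), then ≥5 drug-free passages. Breakthrough scored by syncytium formation. Combinations used the two lowest single-drug starting concentrations.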

HIV-1 RT (WT) = HIV-1 RT (WT) (Human immunodeficiency virus type 1 group M subtype B, UniProt P03366); test: biochemical
In short: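 Inhibition read as reduced incorporation of [2,8-³H]dGTP (2.95 μM) into acid-precipitable product on a poly(C).oligo(dG) template/primer (0.1 mM). Recombinant RT, test compounds in 5-fold dilutions; 30 min, 37° C, pH 7.8 Tris buffer with 5 mM Mg2+, 150 mM KCl.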

[5] = 936 h, day 39 post infection, compound absent from day 35
[6] = 1008 h, day 42 post infection, compound absent from day 35
[7] = 1104 h, day 46 post infection, compound absent from day 35
[8] = 1176 h, day 49 post infection, compound absent from day 35
[9] = 1272 h, day 53 post infection, compound absent from day 35

What does the source list for `Cc1occc1C(=S)Nc1ccc(Cl)c(C=NOC(C)(C)C)c1` [Compound I]?
EC50 (HIV-1(IIIB) (WT); CEM cells, Table 1, read-out: 50% Effective Concentration): 0.05 µg/mL (≈ 0.143 µM); EC50 (HIV-1(IIIB) (WT); HIV-1 (III8), Table 5, read-out: EC50): 0.01 µg/mL (≈ 0.0285 µM); IC50 (HIV-1(IIIB) (WT); range stated for Compounds I-V together, read-out: 50% inhibitory concentration, HIV-1(IIIB) replication in CEM cells): 0.004 to 0.05 µg/mL (≈ 0.0114 to 0.143 µM); EC50 [1]: 0.12 µg/mL (≈ 0.342 µM); EC50 (HIV-1/IV(0.1) 103-Thr): 0.6 µg/mL (≈ 1.71 µM); EC50 (HIV-1/Nev (106-Ala)): 0.13 µg/mL (≈ 0.371 µM); EC50 (HIV-1/B 101Glu): ≥ 1 µg/mL; EC50 (HIV-1/I(0.1) 103-Asn): 0.23 µg/mL (≈ 0.656 µM); EC50 [2]: ≥ 1 µg/mL; EC50 (HIV-1/Pyr (181-Cys)): 0.075 µg/mL (≈ 0.214 µM); EC50 [3]: 0.085 µg/mL (≈ 0.242 µM); EC50 (HIV-1/II(0.1) 100-Ile): 1.25 µg/mL (≈ 3.56 µM); EC50 [4]: 0.075 µg/mL (≈ 0.214 µM); EC50 (HIV-1/III(0.1) 103-Asn): 0.3 µg/mL (≈ 0.855 µM); EC50 (HIV-1/V(0.5) 103-Asn): 0.73 µg/mL (≈ 2.08 µM); prevention of virus breakthrough, fold more efficient than BHAP (HIV-1(IIIB)): at least 5 fold; prevention of virus breakthrough, fold more efficient than nevirapine (HIV-1(IIIB)): ≥ 25 fold; activity at 0.1 µg/mL (HIV-1(IIIB); 96 h, day 4 post infection): 0%; activity at 0.5 µg/mL (HIV-1(IIIB); 96 h, day 4 post infection): 0%; activity at 2.5 µg/mL (HIV-1(IIIB); 96 h, day 4 post infection): 0%; activity at 0.1 µg/mL (HIV-1(IIIB); 192 h, day 8 post infection): 0%; activity at 0.5 µg/mL (HIV-1(IIIB); 192 h, day 8 post infection): 0%; activity at 2.5 µg/mL (HIV-1(IIIB); 192 h, day 8 post infection): 0%; activity at 0.1 µg/mL (HIV-1(IIIB); 264 h, day 11 post infection): 6.2%; activity at 0.5 µg/mL (HIV-1(IIIB); 264 h, day 11 post infection): 0%; activity at 2.5 µg/mL (HIV-1(IIIB); 264 h, day 11 post infection): 0%; activity at 0.1 µg/mL (HIV-1(IIIB); 336 h, day 14 post infection): 25%; activity at 0.5 µg/mL (HIV-1(IIIB); 336 h, day 14 post infection): 0%; activity at 2.5 µg/mL (HIV-1(IIIB); 336 h, day 14 post infection): 0%; activity at 0.1 µg/mL (HIV-1(IIIB); 408 h, day 17 post infection): 100%; activity at 0.5 µg/mL (HIV-1(IIIB); 408 h, day 17 post infection): 0%; activity at 2.5 µg/mL (HIV-1(IIIB); 408 h, day 17 post infection): 0%; activity at 0.1 µg/mL (HIV-1(IIIB); 504 h, day 21 post infection): 100%; activity at 0.5 µg/mL (HIV-1(IIIB); 504 h, day 21 post infection): 0%; activity at 2.5 µg/mL (HIV-1(IIIB); 504 h, day 21 post infection): 0%; activity at 0.1 µg/mL (HIV-1(IIIB); 600 h, day 25 post infection): 100%; activity at 0.5 µg/mL (HIV-1(IIIB); 600 h, day 25 post infection): 0%; activity at 2.5 µg/mL (HIV-1(IIIB); 600 h, day 25 post infection): 0%; activity at 0.1 µg/mL (HIV-1(IIIB); 672 h, day 28 post infection): 100%; activity at 0.5 µg/mL (HIV-1(IIIB); 672 h, day 28 post infection): 0%; activity at 2.5 µg/mL (HIV-1(IIIB); 672 h, day 28 post infection): 0%; activity at 0.1 µg/mL (HIV-1(IIIB); 768 h, day 32 post infection): 100%; activity at 0.5 µg/mL (HIV-1(IIIB); 768 h, day 32 post infection): 0%; activity at 2.5 µg/mL (HIV-1(IIIB); 768 h, day 32 post infection): 0%; activity at 0.1 µg/mL (HIV-1(IIIB); 840 h, day 35 post infection): 100%; activity at 0.5 µg/mL (HIV-1(IIIB); 840 h, day 35 post infection): 0%; activity at 2.5 µg/mL (HIV-1(IIIB); 840 h, day 35 post infection): 0%; activity at 0.1 µg/mL (HIV-1(IIIB); [5]): 100%; activity at 0.5 µg/mL (HIV-1(IIIB); [5]): 0%; activity at 2.5 µg/mL (HIV-1(IIIB); [5]): 0%; activity at 0.1 µg/mL (HIV-1(IIIB); [6]): 100%; activity at 0.5 µg/mL (HIV-1(IIIB); [6]): 0%; activity at 2.5 µg/mL (HIV-1(IIIB); [6]): 0%; activity at 0.1 µg/mL (HIV-1(IIIB); [7]): 100%; activity at 0.5 µg/mL (HIV-1(IIIB); [7]): 0%; activity at 2.5 µg/mL (HIV-1(IIIB); [7]): 0%; activity at 0.1 µg/mL (HIV-1(IIIB); [8]): 100%; activity at 0.5 µg/mL (HIV-1(IIIB); [8]): 0%; activity at 2.5 µg/mL (HIV-1(IIIB); [8]): 0%; activity at 0.1 µg/mL (HIV-1(IIIB); [9]): 100%; activity at 0.5 µg/mL (HIV-1(IIIB); [9]): 0%; activity at 2.5 µg/mL (HIV-1(IIIB); [9]): 0%; concentration at which virus emerged (virus breakthrough) (HIV-1(IIIB); tested at 0.1, 0.5 and 2.5 μg/ml, 35 days): 0.1 µg/mL; IC50 (HIV-1 RT (WT); range stated for the compounds together, poly(C).oligo(dG), 2.95 μM [2,8-3H]dGTP, read-out: IC50 on recombinant HIV-1 RT): 51.3 to 219 nM; IC50 (HIV-1 RT (WT); substrate [2,8-3H]dGTP 2.95 μM, template poly(rC)oligo(dG), read-out: IC50, anti-HIV-1 RT (WT) activity (converted)): 202 nM
